Data published in patent US8933221B2, “Hexahydropyrano[3,4-d][1,3]thiazin-2-amine compounds” (Pfizer Inc., priority 2011, dated 2015).
Structures can show the parent of a compound that is named as a salt.

How the values were obtained:
BACE1 enzyme = BACE1 enzyme (Homo sapiens, UniProt P56817); assay: BACE1 cell-free assay (fluorescence polarization, synthetic APP substrate); format: biochemical; conditions: for IC50: values marked b from a single determination; for activity against the BACE1 enzyme: statement in words, used to assign stereochemistry;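 on all read-outs here: soluble His-tagged BACE1 purified from transfected CHO-K1 cell media, biotinylated Oregon Green-labelled peptide substrate, 3 h at 37 °C, cleavage followed as change in fluorescence polarization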
[1] = system: sAPPβ levels in H4 human neuroglioma cells over-expressing wild-type human APP695; assay: sAPPβ whole cell assay (in vitro sAPPb assay, TMB-ELISA); format: cell-based
[2] = geometric mean of 2-4 determinations
[3] = Homo sapiens, 18 hours, geometric mean of 2-4 determinations, values marked b from a single determination
[4] = geometric mean of 2-6 determinations
[5] = Homo sapiens, 18 hours, geometric mean of 2-6 determinations
[6] = Homo sapiens, 18 h, geometric mean of 2-4 determinations, values marked b from a single determination

Chain of BACE1 enzyme (P56817 46-501 limits assumed): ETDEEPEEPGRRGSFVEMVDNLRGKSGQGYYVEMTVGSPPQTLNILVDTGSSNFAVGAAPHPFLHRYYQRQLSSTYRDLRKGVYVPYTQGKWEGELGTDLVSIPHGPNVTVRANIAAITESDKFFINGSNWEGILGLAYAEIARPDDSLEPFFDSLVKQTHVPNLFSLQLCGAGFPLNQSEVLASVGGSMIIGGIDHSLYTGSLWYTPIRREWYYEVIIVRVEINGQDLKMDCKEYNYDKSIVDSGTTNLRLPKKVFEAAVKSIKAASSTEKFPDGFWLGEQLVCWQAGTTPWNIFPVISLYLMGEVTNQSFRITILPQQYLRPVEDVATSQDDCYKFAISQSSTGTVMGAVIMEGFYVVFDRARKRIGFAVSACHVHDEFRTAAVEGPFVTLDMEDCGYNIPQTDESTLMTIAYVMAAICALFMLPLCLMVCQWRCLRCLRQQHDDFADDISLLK

## Cc1ccc([C@]23COCC[C@H]2CSC(N)=N3)c(F)c1 (relative stereo) [Example 13, rel-(4aR,8aS)-8a-(2-Fluoro-4-methylphenyl)-4,4a,5,6,8,8a-hexahydropyrano[3,4-d][1,3]thiazin-2-amine, hydrochloride salt]
BACE1 enzyme; [2]
  IC50: 3730 nM
[1]; [3]
  IC50: 438 nM

## COc1ccccc1[C@]12COCC[C@H]1CSC(N)=N2 (relative stereo) [Example 19, rel-(4aR,8aS)-8a-(2-Methoxyphenyl)-4,4a,5,6,8,8a-hexahydropyrano[3,4-d][1,3]thiazin-2-amine]
BACE1 enzyme; [2]
  IC50: > 100000 nM
[1]; [3]
  IC50: 4030 nM

## NC1=N[C@@]2(c3ccccc3F)CO[C@@H](COc3ccccn3)C[C@H]2CS1 [Example 8, (4aR,6R,8aS)-8a-(2-Fluorophenyl)-6-[(pyridin-2-yloxy)methyl]-4,4a,5,6,8,8a-hexahydropyrano[3,4-d][1,3]thiazin-2-amine]
BACE1 enzyme; [2]
  IC50: 2380 nM
[1]; [3]
  IC50: 239 nM

## NC1=N[C@@]2(c3ccc(Cl)cc3F)COCC[C@H]2CS1 (relative stereo) [Example 17, rel-(4aR,8aS)-8a-(4-chloro-2-Fluorophenyl)-4,4a,5,6,8,8a-hexahydropyrano[3,4-d][1,3]thiazin-2-amine, hydrochloride salt]
BACE1 enzyme; [2]
  IC50: 10200 nM
[1]; [3]
  IC50: 775 nM

## NC1=N[C@@]2(c3ccccc3F)CO[C@@H](CF)C[C@H]2CS1 [Example 5, (4aR,6R,8aS)-6-(Fluoromethyl)-8a-(2-fluorophenyl)-4,4a,5,6,8,8a-hexahydropyrano[3,4-d][1,3]thiazin-2-amine]
BACE1 enzyme; [2]
  IC50: 838 nM
[1]; [3]
  IC50: 83.4 nM

## NC1=N[C@@]2(c3ccc(O)cc3F)COCC[C@H]2CS1 (relative stereo) [Example 18, rel-4-[(4aR,8aS)-2-Amino-4,4a,5,6-tetrahydropyrano[3,4-d][1,3]thiazin-8a(8H)-yl]-3-fluorophenol, ammonium salt]
BACE1 enzyme; [2]
  IC50: 5350 nM
[1]; [3]
  IC50: 1000 nM

## NC1=N[C@@]2(c3ccccc3)COCC[C@H]2CS1 (relative stereo) [Example 14, rel-(4aR,8aS)-8a-Phenyl-4,4a,5,6,8,8a-hexahydropyrano[3,4-d][1,3]thiazin-2-amine]
BACE1 enzyme; [2]
  IC50: 10400 nM
[1]; [3]
  IC50: 477 nM

## C[C@H]1SC(N)=N[C@@]2(c3cc(-c4cncnc4)ccc3F)COCC[C@@H]12 (racemic) [Example 31]
BACE1 enzyme; [4]
  IC50: 3000 nM
[1]; [5]
  IC50: 112 nM

## NC1=N[C@@]2(c3ccccc3F)COCC[C@H]2CS1 (relative stereo) [Example 12, rel-(4aR,8aS)-8a-(2-Fluorophenyl)-4,4a,5,6,8,8a-hexahydropyrano[3,4-d][1,3]thiazin-2-amine]
BACE1 enzyme; [2]
  IC50: 7950 nM
[1]; [6]
  IC50: 436 nM

## NC1=N[C@@]2(c3ccc(F)cc3F)COCC[C@H]2CS1 [Example 1, (4aR,8aS)-8a-(2,4-Difluorophenyl)-4,4a,5,6,8,8a-hexahydropyrano[3,4-d][1,3]thiazin-2-amine]
BACE1 enzyme
  activity against the BACE1 enzyme: displays activity against the BACE1 enzyme
[1]; [3]
  IC50: 211 nM

## NC1=N[C@@]2(c3ccccc3F)COCC[C@H]2CS1 (racemic) [Example 23]
BACE1 enzyme; [4]
  IC50: 7950 nM
[1]; 18 hours, geometric mean of 2-6 determinations
  IC50: 436 nM

## CC(C)OC[C@H]1C[C@H]2CSC(N)=N[C@@]2(c2ccccc2F)CO1 [Example 2, (4aR,6R,8aS)-8a-(2-Fluorophenyl)-6-[(propan-2-yloxy)methyl]-4,4a,5,6,8,8a-hexahydropyrano[3,4-d][1,3]thiazin-2-amine, trifluoroacetate salt]
BACE1 enzyme; [2]
  IC50: 396 nM
[1]; [3]
  IC50: 72.9 nM

## NC1=N[C@@]2(c3ccc(F)cc3)COCC[C@H]2CS1 (relative stereo) [Example 11, rel-(4aR,8aS)-8a-(4-Fluorophenyl)-4,4a,5,6,8,8a-hexahydropyrano[3,4-d][1,3]thiazin-2-amine]
BACE1 enzyme; [2]
  IC50: 7520 nM
[1]; [3]
  IC50: 380 nM

## NC1=N[C@@]2(c3ccccc3OC(F)(F)F)COCC[C@H]2CS1 [Example 25]
BACE1 enzyme; [4]
  IC50: 87900 nM

## CCOC[C@H]1C[C@H]2CSC(N)=N[C@@]2(c2ccccc2F)CO1 [Example 9, (4aR,6R,8aS)-6-(Ethoxymethyl)-8a-(2-fluorophenyl)-4,4a,5,6,8,8a-hexahydropyrano[3,4-d][1,3]thiazin-2-amine, trifluoroacetic acid salt]
BACE1 enzyme; [2]
  IC50: 914 nM
[1]; [3]
  IC50: 80 nM

## C[C@H]1SC(N)=N[C@@]2(c3cc(Br)ccc3F)COCC[C@@H]12 (racemic) [Example 30]
BACE1 enzyme; [4]
  IC50: 27800 nM
[1]; [5]
  IC50: 1650 nM

## NC1=N[C@@]2(c3ccc(F)cc3F)CO[C@@H](CO)C[C@H]2CS1 [Example 3, [(4aR,6R,8aS)-2-Amino-8a-(2,4-difluorophenyl)-4,4a,5,6,8,8a-hexahydropyrano[3,4-d][1,3]thiazin-6-yl]methanol]
BACE1 enzyme; [2]
  IC50: 2270 nM
[1]; [3]
  IC50: 436 nM

## NC1=N[C@@]2(c3ccccc3F)CO[C@@H](COC(=O)c3ccccc3)C[C@H]2CS1 [Example 15, [(4aR,6R,8aS)-2-Amino-8a-(2-fluorophenyl)-4,4a,5,6,8,8a-hexahydropyrano[3,4-d][1,3]thiazin-6-yl]methyl benzoate]
BACE1 enzyme; [2]
  IC50: 13000 nM
[1]; [3]
  IC50: 492 nM

## C[C@@H]1SC(N)=N[C@@]2(c3ccccc3F)COCC[C@@H]12 (racemic) [Example 28]
BACE1 enzyme; [4]
  IC50: 11200 nM
[1]; [5]
  IC50: 445 nM

## NC1=N[C@]2(c3ccc(F)cc3F)COCC[C@@H]2CS1 [Example 20, (4aS,8aR)-8a-(2,4-Difluorophenyl)-4,4a,5,6,8,8a-hexahydropyrano[3,4-d][1,3]thiazin-2-amine]
BACE1 enzyme
  activity against the BACE1 enzyme: does not
[1]; [3]
  IC50: > 27100 nM

## NC1=N[C@@]2(c3ccc(F)cc3F)CO[C@@H](COCc3ccccc3)C[C@H]2CS1 [Example 6, (4aR,6R,8aS)-6-[(Benzyloxy)methyl]-8a-(2,4-difluorophenyl)-4,4a,5,6,8,8a-hexahydropyrano[3,4-d][1,3]thiazin-2-amine, trifluoroacetic acid salt]
BACE1 enzyme; [2]
  IC50: 32.3 nM
[1]; [3]
  IC50: 64.6 nM

## NC1=N[C@@]2(c3ccccc3F)CO[C@@H](CO)C[C@H]2CS1 [Example 29]
BACE1 enzyme; [4]
  IC50: 8410 nM
[1]; [5]
  IC50: 493 nM

## NC1=N[C@@]2(c3c(F)cccc3F)COCC[C@H]2CS1 (relative stereo) [Example 16, rel-(4aR,8aS)-8a-(2,6-Difluorophenyl)-4,4a,5,6,8,8a-hexahydropyrano[3,4-d][1,3]thiazin-2-amine]
[1]; [6]
  IC50: 506 nM

## NC1=N[C@@]2(c3ccccc3F)CO[C@@H](COc3ccccc3)C[C@H]2CS1 [Example 7, (4aR,6R,8aS)-8a-(2-Fluorophenyl)-6-(phenoxymethyl)-4,4a,5,6,8,8a-hexahydropyrano[3,4-d][1,3]thiazin-2-amine]
BACE1 enzyme; [2]
  IC50: 826 nM
[1]; [3]
  IC50: 108 nM

## NC1=N[C@@]2(c3ccccc3F)COCC[C@H]2CS1 [Example 24]
BACE1 enzyme; [4]
  IC50: 4540 nM
[1]; Homo sapiens, 18 h, geometric mean of 2-6 determinations
  IC50: 452 nM

## NC1=N[C@@]2(c3ccccc3F)CO[C@@H](COc3cnccn3)C[C@H]2CS1 [Example 21, (4aR,6R,8aS)-8a-(2-Fluorophenyl)-6-[(pyrazin-2-yloxy)methyl]-4,4a,5,6,8,8a-hexahydropyrano[3,4-d][1,3]thiazin-2-amine, trifluoroacetic acid salt]
BACE1 enzyme; [2]
  IC50: 2030 nM
[1]; [3]
  IC50: 23.1 nM

## COC[C@H]1C[C@H]2CSC(N)=N[C@@]2(c2ccccc2F)CO1 [Example 26]
BACE1 enzyme; [4]
  IC50: 1240 nM
[1]; [5]
  IC50: 148 nM

## C[C@H]1SC(N)=N[C@@]2(c3ccccc3F)COCC[C@@H]12 (racemic) [Example 27]
BACE1 enzyme; [4]
  IC50: 6720 nM
[1]; [5]
  IC50: 434 nM

## NC1=N[C@@]2(c3ccccc3F)CO[C@@H](COc3ncccn3)C[C@H]2CS1 [Example 22, (4aR,6R,8aS)-8a-(2-Fluorophenyl)-6-[(pyrimidin-2-yloxy)methyl]-4,4a,5,6,8,8a-hexahydropyrano[3,4-d][1,3]thiazin-2-amine, trifluoroacetic acid salt]
BACE1 enzyme; [2]
  IC50: 8030 nM
[1]; [3]
  IC50: 71.1 nM
